Results as given in patent US20060199870A1, “Method for producing aqueous ortho-phthalaldehyde solutions” (DSM Fine Chemicals Austria Nfg GmbH & Co KG, priority 2005, published 2006).

Assay: Solubility / attainable concentration of OPA in aqueous solution
Assay type: physicochemical
Text: According to the invention, sufficient acetal is introduced into water and dissolved, so that after acidifying, a 0.025 to 9% strength by weight aqueous OPA solution is obtained. Preference is given to 0.05 to 5% strength by weight solutions, particularly preferably 0.5 to 2% strength by weight solutions.
It is advantageous in the inventive method that, compared with the use of OPA itself, more highly concentrated solutions (9% compared with 5%) can be produced, since the alcohol eliminated by the acidification favors the dissolution of the OPA formed.
In addition, if desired, the alcohol being eliminated can be removed from the solution by distilling it off, as a result of which, however, the solubility is reduced again to 5%.

## O=Cc1ccccc1C=O [OPA, ortho-phthalaldehyde]
Aqueous solution after the eliminated alcohol is distilled off
  solubility: 5%
Solution produced from OPA acetal, alcohol eliminated by the acidification remains in solution
  attainable concentration of aqueous OPA solution: 9%
Use of OPA itself dissolved in water
  attainable concentration of aqueous OPA solution: 5%
